# In ChEMBL document CHEMBL3885881, “DrugMatrix”:
# Organism: Rattus norvegicus
# Assay: DrugMatrix - Regimen: Daily Repeat
# Type: toxicity, organism-based, Sprague-Dawley
# Set-up: regimen Daily Repeat, gender Male, age 6-8 weeks
# Conditions: in vivo, po, route oral GAVAGE, vehicle 100 % WATER; for ABSOLUTE BASOPHIL / ABSOLUTE EOSINOPHIL / ABSOLUTE LYMPHOCYTE / ABSOLUTE MONOCYTE / ABSOLUTE SEGMENTED NEUTROPHIL / BASOPHIL / EOSINOPHIL / ERYTHROCYTE COUNT / HEMATOCRIT / HEMOGLOBIN / LEUKOCYTE COUNT / LYMPHOCYTE / MEAN CORPUSCULAR HEMOGLOBIN / MEAN CORPUSCULAR HEMOGLOBIN CONCENTRATION / MEAN CORPUSCULAR VOLUME / MONOCYTE / NEUTROPHIL / NUCLEATED RED BLOOD CELLS / PLATELET COUNT: tissue Blood; for ALANINE AMINOTRANSFERASE / ALBUMIN / ALKALINE PHOSPHATASE / ASPARTATE AMINOTRANSFERASE / BLOOD UREA NITROGEN / CARBON DIOXIDE / CHLORIDE / CHOLESTEROL / CREATINE PHOSPHOKINASE / CREATININE / GLUCOSE / LACTATE DEHYDROGENASE / LIPASE / PHOSPHORUS / POTASSIUM / SODIUM / TOTAL BILIRUBIN / TOTAL PROTEIN / URIC ACID: tissue Plasma
# [1] = 0 mg/kg, 72 h, dose level Control, time 3 day
# [2] = 0 mg/kg, 120 h, dose level Control, time 5 day
# [3] = 5 mg/kg, 72 h, dose level Low, time 3 day
smiles,measurement,setting,value
COc1cc2nc(N3CCN(C(=O)C4COc5ccccc5O4)CC3)nc(N)c2cc1OC (centres undefined) [DOXAZOSIN],ABSOLUTE BASOPHIL,[1],0 CELLS/uL
same,ABSOLUTE EOSINOPHIL,[1],86.33 CELLS/uL
same,ABSOLUTE LYMPHOCYTE,[1],12090.17 CELLS/uL
same,ABSOLUTE MONOCYTE,[1],166.67 CELLS/uL
same,ABSOLUTE SEGMENTED NEUTROPHIL,[1],1090.17 CELLS/uL
same,BASOPHIL,[1],0%
same,EOSINOPHIL,[1],0.67%
same,ERYTHROCYTE COUNT,[1],5.57 x10E6/uL
same,HEMATOCRIT,[1],35.33%
same,HEMOGLOBIN,[1],13.83 G/DL
same,LEUKOCYTE COUNT,[1],13.43 x10E3/uL
same,LYMPHOCYTE,[1],89.83%
same,MEAN CORPUSCULAR HEMOGLOBIN,[1],24.88 pg
same,MEAN CORPUSCULAR HEMOGLOBIN CONCENTRATION,[1],39.15 G/DL
same,MEAN CORPUSCULAR VOLUME,[1],63.52 fL
same,MONOCYTE,[1],1.17%
same,NEUTROPHIL,[1],8.33%
same,NUCLEATED RED BLOOD CELLS,[1],0 /100WBC
same,PLATELET COUNT,[1],1181.33 x10E3/uL
same,ALANINE AMINOTRANSFERASE,[1],48.33 u/L
same,ALBUMIN,[1],4.1 G/DL
same,ALKALINE PHOSPHATASE,[1],395 u/L
same,ASPARTATE AMINOTRANSFERASE,[1],81.83 u/L
same,BLOOD UREA NITROGEN,[1],15.83 mg/dL
same,CARBON DIOXIDE,[1],24.17 mmol/L
same,CHLORIDE,[1],103.83 MEQ/L
same,CHOLESTEROL,[1],63.67 mg/dL
same,CREATINE PHOSPHOKINASE,[1],372.83 u/L
same,CREATININE,[1],0.18 mg/dL
same,GLUCOSE,[1],173.83 mg/dL
same,LACTATE DEHYDROGENASE,[1],188.33 u/L
same,LIPASE,[1],9.5 u/L
same,PHOSPHORUS,[1],11.95 mg/dL
same,POTASSIUM,[1],5.99 MEQ/L
same,SODIUM,[1],144.43 MEQ/L
same,TOTAL BILIRUBIN,[1],0.15 mg/dL
same,TOTAL PROTEIN,[1],5.95 G/DL
same,URIC ACID,[1],1.82 mg/dL
same,ABSOLUTE BASOPHIL,[2],0 CELLS/uL
same,ABSOLUTE EOSINOPHIL,[2],26.67 CELLS/uL
same,ABSOLUTE LYMPHOCYTE,[2],7583.83 CELLS/uL
same,ABSOLUTE MONOCYTE,[2],131.33 CELLS/uL
same,ABSOLUTE SEGMENTED NEUTROPHIL,[2],674.83 CELLS/uL
same,BASOPHIL,[2],0%
same,EOSINOPHIL,[2],0.33%
same,ERYTHROCYTE COUNT,[2],5.78 x10E6/uL
same,HEMATOCRIT,[2],36.48%
same,HEMOGLOBIN,[2],14.03 G/DL
same,LEUKOCYTE COUNT,[2],8.42 x10E3/uL
same,LYMPHOCYTE,[2],89.83%
same,MEAN CORPUSCULAR HEMOGLOBIN,[2],24.3 pg
same,MEAN CORPUSCULAR HEMOGLOBIN CONCENTRATION,[2],38.52 G/DL
same,MEAN CORPUSCULAR VOLUME,[2],63.15 fL
same,MONOCYTE,[2],1.67%
same,NEUTROPHIL,[2],8.17%
same,NUCLEATED RED BLOOD CELLS,[2],0 /100WBC
same,PLATELET COUNT,[2],1186.67 x10E3/uL
same,ALANINE AMINOTRANSFERASE,[2],50.17 u/L
same,ALBUMIN,[2],4.07 G/DL
same,ALKALINE PHOSPHATASE,[2],367.5 u/L
same,ASPARTATE AMINOTRANSFERASE,[2],81.67 u/L
same,BLOOD UREA NITROGEN,[2],16.17 mg/dL
same,CARBON DIOXIDE,[2],32.33 mmol/L
same,CHLORIDE,[2],101.5 MEQ/L
same,CHOLESTEROL,[2],65.33 mg/dL
same,CREATINE PHOSPHOKINASE,[2],255.33 u/L
same,CREATININE,[2],0.17 mg/dL
same,GLUCOSE,[2],139.33 mg/dL
same,LACTATE DEHYDROGENASE,[2],95 u/L
same,LIPASE,[2],10.5 u/L
same,PHOSPHORUS,[2],10.38 mg/dL
same,POTASSIUM,[2],6.11 MEQ/L
same,SODIUM,[2],145.55 MEQ/L
same,TOTAL BILIRUBIN,[2],0.17 mg/dL
same,TOTAL PROTEIN,[2],5.98 G/DL
same,URIC ACID,[2],0.93 mg/dL
same,ABSOLUTE BASOPHIL,[3],0 CELLS/uL
same,ABSOLUTE EOSINOPHIL,[3],0 CELLS/uL
same,ABSOLUTE LYMPHOCYTE,[3],13989.67 CELLS/uL
same,ABSOLUTE MONOCYTE,[3],387.67 CELLS/uL
same,ABSOLUTE SEGMENTED NEUTROPHIL,[3],2189.33 CELLS/uL
same,BASOPHIL,[3],0%
same,EOSINOPHIL,[3],0%
same,ERYTHROCYTE COUNT,[3],5.22 x10E6/uL
same,HEMATOCRIT,[3],34.5%
same,HEMOGLOBIN,[3],13.43 G/DL
same,LEUKOCYTE COUNT,[3],16.57 x10E3/uL
same,LYMPHOCYTE,[3],84.33%
same,MEAN CORPUSCULAR HEMOGLOBIN,[3],25.77 pg
same,MEAN CORPUSCULAR HEMOGLOBIN CONCENTRATION,[3],38.97 G/DL
same,MEAN CORPUSCULAR VOLUME,[3],66.17 fL
same,MONOCYTE,[3],2.33%
same,NEUTROPHIL,[3],13.33%
same,NUCLEATED RED BLOOD CELLS,[3],0 /100WBC
same,PLATELET COUNT,[3],1263.33 x10E3/uL
same,ALANINE AMINOTRANSFERASE,[3],47.33 u/L
same,ALBUMIN,[3],3.93 G/DL
same,ALKALINE PHOSPHATASE,[3],317.67 u/L
same,ASPARTATE AMINOTRANSFERASE,[3],97 u/L
same,BLOOD UREA NITROGEN,[3],16.33 mg/dL
same,CARBON DIOXIDE,[3],22 mmol/L
same,CHLORIDE,[3],103 MEQ/L
same,CHOLESTEROL,[3],59.67 mg/dL
same,CREATINE PHOSPHOKINASE,[3],763 u/L
same,CREATININE,[3],0.18 mg/dL
same,GLUCOSE,[3],187 mg/dL
same,LACTATE DEHYDROGENASE,[3],544.33 u/L
same,LIPASE,[3],9 u/L
same,PHOSPHORUS,[3],11.9 mg/dL
same,POTASSIUM,[3],5.79 MEQ/L
same,SODIUM,[3],142.7 MEQ/L
same,TOTAL BILIRUBIN,[3],0.17 mg/dL
same,TOTAL PROTEIN,[3],5.73 G/DL
same,URIC ACID,[3],1.7 mg/dL
